One experiment addresses γ-EfCA. In words: stopped-flow CO2 hydrase assay. The note with it: CO2 hydration, pH 8.3. It is filed as biochemical, Enterococcus faecium.
In experiment [1] the target is T1, α-EfCA (Enterococcus faecium, UniProt Q3XYE8).
T1 construct: gene HMPREF0351_11360
T1 sequence (Q3XYE8 1-234): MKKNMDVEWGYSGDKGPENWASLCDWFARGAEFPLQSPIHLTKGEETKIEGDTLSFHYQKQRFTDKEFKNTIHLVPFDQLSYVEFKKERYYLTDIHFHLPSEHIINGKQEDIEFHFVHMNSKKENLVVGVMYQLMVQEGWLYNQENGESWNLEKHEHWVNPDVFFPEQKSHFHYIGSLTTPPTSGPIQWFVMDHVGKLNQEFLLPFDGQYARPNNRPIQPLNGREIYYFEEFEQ
In words: stopped-flow CO2 hydrase assay. It is filed as biochemical.

The target in experiment [2] is T2, α-NgCA (Neisseria gonorrhoeae, UniProt Q50940).
T2 construct: gene cah
T2 sequence (Q50940 27-252): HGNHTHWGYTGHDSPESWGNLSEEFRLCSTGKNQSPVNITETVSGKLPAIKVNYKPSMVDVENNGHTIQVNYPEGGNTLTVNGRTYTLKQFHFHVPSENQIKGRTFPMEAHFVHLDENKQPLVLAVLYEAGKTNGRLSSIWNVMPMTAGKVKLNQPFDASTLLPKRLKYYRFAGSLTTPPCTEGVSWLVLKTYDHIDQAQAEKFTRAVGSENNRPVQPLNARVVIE
In words: stopped-flow CO2 hydrase assay. It is filed as biochemical.

Experiment [3] deals with T1, α-EfCA. Put plainly: biochemical. Also noted: stopped-flow CO2 hydration assay of recombinant carbonic anhydrases, pH 7.4 (alpha) or 8.3 (gamma), KI. As for the experimental part: (§1) The experiments were performed at the pH of 7.4 for the α-class enzymes, and the pH of 8.3 for the γ-CA, as reported earlier[15]^,[16]. The bacterial enzymes were recombinant proteins obtained as reported earlier by our group[15]^,[16].

For experiment [4], the target named is T2, α-NgCA. In words: biochemical. Also noted: stopped-flow CO2 hydration assay of recombinant carbonic anhydrases, pH 7.4 (alpha) or 8.3 (gamma), KI. As to the method:
as §1

What is called Ki is the dissociation constant of the complex between target and ligand, obtained from inhibition or displacement. With `O=C(S)N1CCN(c2ccc(C(F)(F)F)cc2)CC1` [compound 13, MTC 13], the Ki was determined as 0.334 µM on γ-EfCA, 0.477 µM on α-EfCA [1] and 0.394 µM at α-NgCA [2].

Take `O=C(CN1CCN(C(=O)S)CC1)NC1CCCCC1` [compound 5, MTC 5]: the Ki at γ-EfCA turned out to be 0.417 µM; on α-EfCA [1], 0.29 µM; on α-NgCA [2] it was 0.395 µM.

As to `CN1CCN(C(=O)S)CC1` [compound 6], the values for the Ki at α-EfCA [3] and at α-NgCA [4] were 959 nM and 729 nM, respectively.

`CCCCN(CCCC)C(=O)S` [compound 3]: the Ki worked out at 517 nM on α-EfCA [3] and 825 nM on α-NgCA [4].

For the compound `CCOC(=O)CN(C)C(=O)S` [compound 7, MTC 7], the Ki at γ-EfCA was 0.279 µM.

`COc1ccc(CCNC(=O)S)cc1OC` [compound 12, MTC 12]: the figures for the Ki at γ-EfCA, at α-EfCA [1] and on α-NgCA [2] were 0.358 µM, 0.357 µM and 0.512 µM, respectively.

Consider `O=C(S)N1CCN(c2cccc(Cl)c2)CC1` [compound 15, MTC 15], for which the Ki came out at 0.214 µM at γ-EfCA, 0.3 µM on α-EfCA [1] and 0.367 µM on α-NgCA [2].

On to `CC(C)CN(CC(C)C)C(=O)S` [compound 2], for which the Ki on α-EfCA [3] stood at 665 nM; on α-NgCA [4], 890 nM.

As for `O=C(S)NCCc1ccccc1` [compound 9], the Ki at α-NgCA [4] turned out to be 648 nM.

Turning to `O=C(S)N1CCN(c2ccc(F)cc2)CC1` [compound 14, MTC 14], the figures for the inhibition constant Ki on γ-EfCA, at α-EfCA [1] and on α-NgCA [2] were 0.149 µM, 0.195 µM and 0.417 µM, respectively.

In turn, `O=C(S)NCCc1ccccc1` [compound 9, MTC 9] had a Ki at α-EfCA [1] of 0.428 µM.

On to `O=C(S)N1CCN(C(=O)S)CC1` [compound 11], for which the Ki on α-EfCA [3] worked out at 915 nM; on α-NgCA [4], 630 nM.

For `CCCCN(CC)C(=O)S` [compound 10], the Ki at α-EfCA [3] was found to be 806 nM; on α-NgCA [4] it was 766 nM.

With `O=C(S)N1CCOCC1` [compound 1], the Ki is 740 nM at α-EfCA [3] and 761 nM on α-NgCA [4].

For `CCOC(=O)CN(C)C(=O)S` [compound 7], the values for the Ki at α-EfCA [3] and at α-NgCA [4] were 788 nM and 919 nM, respectively.

For `CCCN(CCC)C(=O)S` [compound 4], the Ki at α-EfCA [3] is 550 nM; on α-NgCA [4], 799 nM.

In the case of `CN(Cc1ccccc1)C(=O)S` [compound 8], the Ki is 686 nM at α-EfCA [3] and 843 nM on α-NgCA [4].

Values taken from PMC11003479, “Inhibition of pathogenic bacterial carbonic anhydrases by monothiocarbamates” (Journal of Enzyme Inhibition and Medicinal Chemistry, 2023).
